In brackets after ≈: the same amount, converted by molar mass.

A short description of this data set: Toxicity in brine shrimp after 24 hrs. The format is organism-based. Particulars: artemia, in vivo; read-out: LD50.

As to `COc1cc([C@@H]2c3cc4c(cc3[C@H](O)[C@H]3COC(=O)[C@H]23)OCO4)cc(OC)c1OC` [PODOFILOX], the LC50 at 24 h turned out to be 2 µg/mL (≈ 4.83 µM).

These data come from ChEMBL document CHEMBL1158030, “Endophyte fungal isolates from Podophyllum peltatum produce podophyllotoxin” (J Nat Prod, 2006).
